Measurements from EPA's ToxRefDB 2.

Columns and labels:
rat [1] = settings: Prenatal developmental toxicity study, sprague dawley, Oral, Gavage/Intubation, dose end: 17 GD
dog [2] = settings: Sub-acute repeat dose toxicity; beagle; Oral; Gavage/Intubation; dose end: 1 month; group: systemic; systemic / clinical chemistry / cholesterol / cholesterol + systemic / in life observation / body weight / body weight + systemic / in life …
rat [3] = settings: Chronic toxicity, sprague dawley, Oral, Gavage/Intubation, dose end: 6 month, group: systemic
rabbit [4] = settings: Prenatal developmental toxicity study; new zealand white; Oral; Gavage/Intubation; dose end: 19 GD; group: maternal; systemic / in life observation / body weight / body weight gain + systemic / in life observation / clinical signs / alopecia + systemic / in…
rat [5] = settings: Sub-acute repeat dose toxicity, sprague dawley, Oral, Gavage/Intubation, dose end: 28 day
rat [6] = settings: Prenatal developmental toxicity study, sprague dawley, Oral, Gavage/Intubation, dose end: 17 GD; remark: listed apart in the source
dog [7] = settings: Chronic toxicity; beagle; Oral; Gavage/Intubation; dose end: 6 month; group: systemic; systemic / in life observation / body weight / body weight + systemic / in life observation / clinical signs / pulse/pressure + systemic / …
rat [8] = settings: Fertility (Segment I), sprague dawley, Oral, Gavage/Intubation, dose end: 56 day
rabbit [9] = settings: Prenatal developmental toxicity study, new zealand white, Oral, Gavage/Intubation, dose end: 19 GD, group: maternal
rat [10] = settings: Fertility (Segment I), sprague dawley, Oral, Gavage/Intubation, dose end: 7 GD
rat [11] = settings: Fertility (Segment I), sprague dawley, Oral, Gavage/Intubation, dose end: 7 GD; remark: listed apart in the source
dog [12] = settings: Chronic toxicity; beagle; Oral; Capsule; dose end: 12 month; group: systemic; systemic / in life observation / body weight / body weight + systemic / in life observation / clinical signs / emaciation + systemic / in …
hamster = settings: Subchronic oral toxicity in rodents, golden syrian, Feed, dose end: 90 day, group: systemic
rat [13] = settings: Combined chronic toxicity/carcinogenicity; sprague dawley; Oral; Feed; dose end: 2 year; group: systemic; systemic / clinical chemistry / cholesterol / cholesterol + systemic / in life observation / body weight / body weight + systemic / in life …
rat [14] = settings: Subchronic oral toxicity in rodents, sprague-dawley, Feed, dose end: 90 day, group: systemic, systemic / organ weight / liver / absolute + systemic / organ weight / liver / relative to body weight + systemic / pathology microscopic / …
mouse [15] = settings: Carcinogenicity; cd1; Oral; Feed; dose end: 78 week; group: systemic; systemic / in life observation / body weight / body weight + systemic / in life observation / body weight / body weight gain
rat [16] = settings: Prenatal developmental toxicity study, sprague dawley, Oral, Gavage/Intubation, dose end: 15 GD
rat [17] = settings: Neurotoxicity screening battery; other; Oral; Feed; dose end: 11 month; group: cannot be grouped; systemic / in life observation / body weight / body weight
rat [18] = settings: Multigenerational reproductive toxicity study, sprague dawley, Oral, Feed, dose end: 2 generation
dog [19] = settings: Chronic toxicity, beagle, Oral, Feed, dose end: 52 week, group: cholinesterase
dog [20] = settings: Chronic toxicity; beagle; Oral; Feed; dose end: 24 month; group: cholinesterase; cholinesterase / cholinesterase / cholinesterase / plasma cholinesterase (che)
mouse [21] = settings: Carcinogenicity; cd1; Oral; Feed; dose end: 104 week; group: cholinesterase; cholinesterase / cholinesterase / cholinesterase / cholinesterase (che)
rat [22] = settings: Prenatal developmental toxicity study, other, Oral, Gavage/Intubation, dose end: 15 GD
rabbit [23] = settings: Prenatal developmental toxicity study, Oral, Gavage/Intubation, dose end: 18 GD
[24] = group: developmental, systemic / in life observation / body weight / fetal weight
[25] = group: maternal, systemic / in life observation / body weight / body weight + systemic / in life observation / body weight / body weight gain + systemic / in…
[26] = systemic / clinical chemistry / alanine aminotransferase (alt/sgpt) / alanine aminotransferase (alt/sgpt) + systemic / clinical chemistry / …
[27] = systemic / in life observation / clinical signs / [other] + systemic / organ weight / uterus / absolute + systemic / organ weight / uterus…
[28] = group: maternal, reproductive / reproductive performance / estrous cycle / abnormal
[29] = group: systemic, systemic / in life observation / clinical signs / excessive or spontaneous vocalization + systemic / organ weight / salivary glands / …
[30] = group: developmental, developmental / developmental malformation / bone / incomplete ossification + systemic / in life observation / body weight / fetal weight
[31] = group: maternal, reproductive / reproductive performance / estrous cycle / corpora lutea + reproductive / reproductive performance / implantations / …
[32] = group: parental, systemic / in life observation / body weight / body weight gain + systemic / in life observation / clinical signs / [other] + systemic / in …
[33] = systemic / in life observation / body weight / body weight gain + systemic / in life observation / food consumption / food consumption
[34] = systemic / in life observation / body weight / body weight gain + systemic / in life observation / food consumption / food consumption + …
[35] = group: parental, systemic / in life observation / clinical signs / [other] + systemic / in life observation / body weight / body weight gain + systemic / in …
[36] = group: maternal, reproductive / offspring survival early / litter viability other / total litter loss + reproductive / reproductive performance / …
[37] = group: parental, systemic / in life observation / body weight / body weight gain + systemic / in life observation / clinical signs / abnormal motor movement…
[38] = systemic / in life observation / body weight / body weight + systemic / in life observation / food consumption / food consumption
[39] = systemic / in life observation / body weight / body weight + systemic / in life observation / food consumption / food consumption + systemic…
[40] = group: maternal, systemic / in life observation / body weight / body weight gain + systemic / in life observation / clinical signs / ataxia + systemic / in …
[41] = group: offspring, systemic / in life observation / body weight / offspring (pup) weight
[42] = group: parental, systemic / pathology gross / kidney / discolored + systemic / pathology microscopic / kidney / casts granular + systemic / pathology …
[43] = cholinesterase / cholinesterase / cholinesterase / plasma cholinesterase (che)
[44] = cholinesterase / cholinesterase / cholinesterase / plasma cholinesterase (che) + cholinesterase / cholinesterase / cholinesterase / brain …
[45] = group: developmental, developmental / developmental malformation / bone / delayed ossification
[46] = group: maternal, systemic / in life observation / clinical signs / hyperactivity
[47] = group: developmental, developmental / developmental malformation / bone / fused
[48] = group: maternal, systemic / in life observation / body weight / body weight gain + systemic / urinalysis / appearance and color / appearance and color
[49] = group: maternal, systemic / in life observation / body weight / body weight gain + systemic / urinalysis / appearance and color / appearance and color + …

## FC(F)(F)c1cccc(C2=CCN(CCc3ccc4ccncc4c3)CC2)c1
Rat [1]; [24]
  LEL: 7.5 mg/kg/day
  LOAEL: 7.5 mg/kg/day
  NEL: 2.5 mg/kg/day
  NOAEL: 2.5 mg/kg/day
Rat [1]; [25]
  LEL: 0.75 mg/kg/day
  LOAEL: > 7.5 mg/kg/day
  NEL: < 0.75 mg/kg/day
  NOAEL: ≥ 7.5 mg/kg/day
Dog [2]
  LEL: 0.01 mg/kg/day
  LOAEL: 0.01 mg/kg/day
  NEL: < 0.01 mg/kg/day
  NOAEL: < 0.01 mg/kg/day
Rat [3]; [26]
  LOAEL: > 7.5 mg/kg/day
  NOAEL: ≥ 7.5 mg/kg/day
Rat [3]; [27]
  LEL: 0.1 mg/kg/day
  NEL: < 0.1 mg/kg/day
Rabbit [4]
  LEL: 0.01 mg/kg/day
  LOAEL: > 0.05 mg/kg/day
  NEL: < 0.01 mg/kg/day
  NOAEL: ≥ 0.05 mg/kg/day
Rat [5]; [28]
  LEL: 1 mg/kg/day
  LOAEL: > 7.5 mg/kg/day
  NEL: 0.1 mg/kg/day
  NOAEL: ≥ 7.5 mg/kg/day
Rat [5]; [29]
  LEL: 0.1 mg/kg/day
  LOAEL: 0.1 mg/kg/day
  NEL: < 0.1 mg/kg/day
  NOAEL: < 0.1 mg/kg/day
Rat [6]; [30]
  LEL: 7.5 mg/kg/day
  LOAEL: 7.5 mg/kg/day
  NEL: 2.5 mg/kg/day
  NOAEL: 2.5 mg/kg/day
Rat [6]; [25]
  LEL: 0.75 mg/kg/day
  LOAEL: > 7.5 mg/kg/day
  NEL: < 0.75 mg/kg/day
  NOAEL: ≥ 7.5 mg/kg/day
Dog [7]
  LEL: 0.01 mg/kg/day
  LOAEL: > 0.25 mg/kg/day
  NEL: < 0.01 mg/kg/day
  NOAEL: ≥ 0.25 mg/kg/day
Rat [8]; [31]
  LEL: 7.5 mg/kg/day
  LOAEL: > 7.5 mg/kg/day
  NEL: 1 mg/kg/day
  NOAEL: ≥ 7.5 mg/kg/day
Rat [8]; [32]
  LEL: 0.1 mg/kg/day
  LOAEL: 0.1 mg/kg/day
  NEL: < 0.1 mg/kg/day
  NOAEL: < 0.1 mg/kg/day
Rabbit [9]; [33]
  LEL: 0.01 mg/kg/day
  NEL: < 0.01 mg/kg/day
Rabbit [9]; [34]
  LOAEL: > 0.05 mg/kg/day
  NOAEL: ≥ 0.05 mg/kg/day
Rat [10]; [28]
  LEL: 0.1 mg/kg/day
  LOAEL: 0.1 mg/kg/day
  NEL: < 0.1 mg/kg/day
  NOAEL: < 0.1 mg/kg/day
Rat [10]; [35]
  LEL: 0.1 mg/kg/day
  LOAEL: 0.1 mg/kg/day
  NEL: < 0.1 mg/kg/day
  NOAEL: < 0.1 mg/kg/day
Rat [11]; [36]
  LOAEL: > 7.5 mg/kg/day
  NOAEL: ≥ 7.5 mg/kg/day
Rat [11]; [28]
  LEL: 0.1 mg/kg/day
  NEL: < 0.1 mg/kg/day
Rat [11]; group: parental, systemic / in life observation / body weight / body weight gain
  LEL: 1 mg/kg/day
Rat [11]; [37]
  LOAEL: > 7.5 mg/kg/day
  NEL: 0.1 mg/kg/day
  NOAEL: ≥ 7.5 mg/kg/day

## CCN(CC)C(=O)c1cccc(C)c1 [DEET]
Dog [12]
  LEL: 400 mg/kg/day
  LOAEL: 400 mg/kg/day
  NEL: 100 mg/kg/day
  NOAEL: 100 mg/kg/day
hamster; [38]
  LEL: 304 mg/kg/day
  LOAEL: 304 mg/kg/day
hamster; [39]
  NEL: 61 mg/kg/day
  NOAEL: 61 mg/kg/day
Rat [13]
  LEL: 400 mg/kg/day
  LOAEL: 400 mg/kg/day
  NEL: 100 mg/kg/day
  NOAEL: 100 mg/kg/day
Rat [14]
  LEL: 100 mg/kg/day
  LOAEL: 100 mg/kg/day
  NEL: < 100 mg/kg/day
  NOAEL: < 100 mg/kg/day
Mouse [15]
  LEL: 1000 mg/kg/day
  LOAEL: 1000 mg/kg/day
  NEL: 500 mg/kg/day
  NOAEL: 500 mg/kg/day
Rat [16]; [24]
  LEL: 750 mg/kg/day
  LOAEL: 750 mg/kg/day
  NEL: 250 mg/kg/day
  NOAEL: 250 mg/kg/day
Rat [16]; [40]
  LEL: 750 mg/kg/day
  LOAEL: 750 mg/kg/day
  NEL: 250 mg/kg/day
  NOAEL: 250 mg/kg/day
Rat [17]
  LEL: 250 mg/kg/day
  LOAEL: > 250 mg/kg/day
  NEL: 100 mg/kg/day
  NOAEL: ≥ 250 mg/kg/day
Rat [18]; [41]
  LEL: 250 mg/kg/day
  LOAEL: > 250 mg/kg/day
  NEL: 100 mg/kg/day
  NOAEL: ≥ 250 mg/kg/day
Rat [18]; [42]
  LEL: 25 mg/kg/day
  LOAEL: 25 mg/kg/day
  NEL: < 25 mg/kg/day
  NOAEL: < 25 mg/kg/day

## CCOP(=S)(OCC)SCSP(=S)(OCC)OCC [Ethion]
Dog [19]; [43]
  LEL: 0.049 mg/kg/day
  LOAEL: 0.049 mg/kg/day
Dog [19]; [44]
  NEL: 0.026 mg/kg/day
  NOAEL: 0.026 mg/kg/day
Dog [20]
  LEL: 0.403 mg/kg/day
  LOAEL: 0.403 mg/kg/day
  NEL: 0.123 mg/kg/day
  NOAEL: 0.123 mg/kg/day
Mouse [21]
  LEL: 1.2 mg/kg/day
  LOAEL: > 1.2 mg/kg/day
  NEL: 0.22 mg/kg/day
  NOAEL: ≥ 1.2 mg/kg/day
Rat [22]; [45]
  LEL: 2.5 mg/kg/day
  LOAEL: 2.5 mg/kg/day
  NEL: 0.6 mg/kg/day
  NOAEL: 0.6 mg/kg/day
Rat [22]; [46]
  LEL: 2.5 mg/kg/day
  LOAEL: 2.5 mg/kg/day
  NEL: 0.6 mg/kg/day
  NOAEL: 0.6 mg/kg/day
Rabbit [23]; [47]
  LEL: 9.6 mg/kg/day
  LOAEL: 9.6 mg/kg/day
  NEL: 2.4 mg/kg/day
  NOAEL: 2.4 mg/kg/day
Rabbit [23]; [48]
  LEL: 2.4 mg/kg/day
  LOAEL: 2.4 mg/kg/day
Rabbit [23]; [49]
  NEL: 0.6 mg/kg/day
  NOAEL: 0.6 mg/kg/day
